Reference: paper PMC5643073 (ACS combinatorial science, 2017)

Tests used:
in vitro = details: human
Cytotoxicity assay = details: human, HEK293T cells

Cc1cc(SCc2sc(-c3ccc(C(F)(F)F)cc3)nc2C)ccc1OCC(=O)O [Compound 13]
CC50 at 18 h (in vitro): > 33 µM

Cc1cc(SCc2sc(-c3ccc(C(F)(F)F)c(F)c3)nc2C)ccc1OCC(=O)O [Compound 31]
CC50 at 18 h (Cytotoxicity assay): > 50 µM
